Values after ≈ are worked out from the molar mass of the structure shown. Where two headings read alike, the source gives them in different places.
Legend:
[1] = test system: Jurkat (human T-cell leukemia) cell line; experiment: Anti-apoptotic assay using Jurkat T-cells (staurosporine-induced cell death, resazurin); assay type: cell-based; details: compound 10 µM, staurosporine 100 nM, 48 h
Protocol: The anti-apototic assay was done as described in [10]. Briefly, Jurkat (human T-cell leukemia) cell line (ATCC) was cultured in RPMI-1640 medium with L-glutamine and supplemented with 10% fetal bovine serum and antibiotic solution. Cells were grown at 37°C in 5% CO2 and 95% air environment at 100% humidity. Cells were plated in 45 μL/well of serum-free medium at 2.5 × 10^5 cells/mL and incubated for 1 h before compound addition. Compound stock solutions were diluted with growth medium and added to the cells to obtain desired concentration. One percent DMSO was used for control wells (without the addition of compounds). […] Cells were further incubated for 120 min, and the fluorescence was measured using the Wallac Victor2V plate reader (PerkinElmer Life Sciences) at 531/589 nm ex/em wavelengths. The percent protection from induced apoptosis was calculated using the following equation: […]
where ΔFl denotes the difference in resazurin fluorescence measured at point 0 and after 120-min incubation with the cells; subscripts t, s, and n are fluorescence in the presence of a test compound + staurosporine, staurosporine alone, and no staurosporine, respectively.
Protection against cellular apoptosis was determined using staurosporine as apoptotic inducer in Jurkat cells (human T-cell leukemia), as described in the ‘Methods’ section. […]

[2] = In vivo pharmacokinetic experiment in mice; details: mouse, plasma, male NMRI mice
Protocol: Pharmacokinetic profiling was carried out using oral and intravenous route (IV) dosing in male NMRI mice. […] The plasma samples were collected at different time points until 8 hr and were stored frozen at −80°C until analysis. Quantitative bio-analysis of the drugs in the plasma samples was done using an LC-MS/MS. Plasma samples were analyzed following protein precipitation of plasma with acetonitrile containing internal standards.
Curve fitting was performed with Prism 5.1 software (GraphPad Software Inc., San Diego, CA) using built-in equation describing corresponding data models. All the other data were mentioned as mean ± standard deviation of triplicates values. PK parameters were determined using WinNonlin 5.2 software.
Compounds were administered to male NMRI mice either as 1 mg/kg intravenous bolus in 1% (v/v) DMA, 10% (w/v) HP-b-CD in normal saline, or orally by gavage at 5 mg/kg in 1% (v/v) DMA, 1% (w/v) Poloxamer 147, and 10% (w/v) HP-b-CD in saline.

[3] = Kinetic aqueous solubility (shake flask, 96-well); assay type: physicochemical; details: pH 7.4, aqueous buffer, kinetic from dmso stock
Protocol: After 16 h of incubation, the supernatant was subjected for analysis.

caspase-3 = biological target: T1, caspase-3 (Homo sapiens, UniProt P42574); experiment: Caspase-3 fluorometric inhibition assay (AC-DEVD-AMC substrate); assay type: biochemical; details: 10 µM AC-DEVD-AMC, 10 U caspase-3
T1 construct: purchased Sigma-Aldrich C1224
T1 sequence (P42574 29-175 limits assumed): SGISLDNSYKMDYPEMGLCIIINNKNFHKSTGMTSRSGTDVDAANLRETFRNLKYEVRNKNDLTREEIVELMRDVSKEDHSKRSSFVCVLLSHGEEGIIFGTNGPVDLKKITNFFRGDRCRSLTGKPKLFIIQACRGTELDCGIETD
T1 sequence (P42574 176-277 limits assumed): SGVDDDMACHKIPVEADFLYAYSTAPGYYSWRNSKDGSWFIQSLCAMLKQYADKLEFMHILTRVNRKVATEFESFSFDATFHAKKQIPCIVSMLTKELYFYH
Protocol: Fluorescence measurements were done using VICTOR2V 96/384 multilabel plate reader (PerkinElmer Life Sciences, MA, USA) at λex = 360 nm and λem = 460 nm top readout (ex, excitation; em, emission) in Corning black 96-well flat bottom plates. The enzyme activity was measured at 30°C after 30 min. Trans-epithelial resistance (TEER) measurements (for monolayer integrity) were made using instrument from World Precision Instrument (Florida, USA). HPLC (1100 series, Agilent Technologies Inc., CA, USA) was performed on reverse phase column (Zorbax Eclipse XDB C18, 150 × 4.6 mm, 5 μm). LC-MS/MS was performed in multiple reaction monitoring mode using Applied Biosystems API 3200 (Chromos, Singapore) coupled to Agilent Technologies 1100 series HPLC on a reverse phase column (Zorbax Eclipse XDB C18, 50 × 4.6 mm, 5 μm).
Screening of compounds was carried out at two different concentrations (1 and 10 μM). […]
The ability of NCEs to inhibit the activity of human recombinant caspases as well as other proteases was determined using a standard fluorometric microplate assay as described in [1, 10]. […] Activities of the other caspases were determined similarly using the corresponding fluorogenic substrates: 50 U of caspase-1 and 10 μM N-acetyl-Tyr-Val-Ala-Asp-7-amido-4-methylcoumarin. […]

Microsomal stability = assay type: in vitro ADME; details: mouse liver microsomes, 1 µM, NADPH and UDPGA
Protocol: Mouse liver microsomes (in-house prepared) and pooled human liver microsomes (BD Gentest, CA, USA) were incubated with 1-μM test compounds at 37°C for 15 and 60 min using NADPH and UDPGA as co-factors. The reaction was stopped by the addition of cold acetonitrile, precipitated protein was removed, and the supernatants were analyzed.

Thrombin = biological target: T2, Thrombin (Homo sapiens, UniProt P00734); experiment: Thrombin counterscreen assay; assay type: biochemical; details: read-out: % inhibition at 10 µM Thrombin; compound 10 µM
T2 construct: purchased Enzyme Research Laboratories HT1002a
Protocol: (§1) Screening of compounds was carried out at two different concentrations (1 and 10 μM). Selected compounds were subjected to dose response determination in semi-log concentration (serial threefold dilutions) at constant DMSO concentration of 1% with highest compound concentration at 100 μM. Counterscreening against some of proteases, permeability, and CYP450 inhibition studies was carried out for few selected compounds at 10 μM concentration.
(§2) Thrombin assay reaction mixture (100 μl) contained 140 ng of enzyme and 100 μM of substrate (Boc-Glu-Ala-Arg-AMC) in Tris–HCl buffer pH 8.5. Cathepsin-B assay buffer contained 50 mM MES, 0.01% CHAPS, 100 μM of substrate (Z-Phe-Arg-AMC HCl), and 0.1 U of enzyme. […] The enzyme activities were monitored (ex/em 355/460) as a time-course measurement of the increase in fluorescence signal from fluorescently labeled peptide substrate for 120 min at room temperature. Percent inhibition calculation was calculated using following equation:
(§3) Percent inhibition=100−[RFU in test wells/RFU in basal control wells×100]

Cathepsin-B = biological target: T3, Cathepsin-B (Homo sapiens, UniProt P07858); experiment: Cathepsin-B counterscreen assay; assay type: biochemical; details: read-out: % inhibition at 10 µM Cathepsin-B; compound 10 µM
T3 construct: purchased Sigma-Aldrich C0150
Protocol: as §1, §2, §3

caspase-1 = biological target: T4, caspase-1 (Homo sapiens, UniProt P29466); experiment: Caspase-1 counterscreen assay; assay type: biochemical; details: read-out: % inhibition at 10 µM Caspase-1; compound 10 µM
T4 construct: purchased Enzo Life Sciences, Inc. BML-AK701
T4 sequence (P29466 120-297 limits assumed): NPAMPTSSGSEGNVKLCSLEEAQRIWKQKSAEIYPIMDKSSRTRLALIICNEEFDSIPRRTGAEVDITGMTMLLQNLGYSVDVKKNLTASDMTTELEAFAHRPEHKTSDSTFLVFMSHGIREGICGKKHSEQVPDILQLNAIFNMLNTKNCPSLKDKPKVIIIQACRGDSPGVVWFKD
T4 sequence (P29466 317-404 limits assumed): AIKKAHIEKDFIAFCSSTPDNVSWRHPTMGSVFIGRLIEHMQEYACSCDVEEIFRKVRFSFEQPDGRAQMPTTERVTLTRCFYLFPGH
Protocol: as §1
The ability of NCEs to inhibit the activity of human recombinant caspases as well as other proteases was determined using a standard fluorometric microplate assay as described in [1, 10]. The assay buffer contained 25 mM sodium HEPES, 50 mM KCl, 0.1% CHAPS, and 1 mM β-mercaptoethanol, pH7.4. To a reaction mixture (100 μL) containing the above buffer, 10 μM AC-DEVD-AMC and 10 U caspase-3 were added in a black 96-well microplate. Activities of the other caspases were determined similarly using the corresponding fluorogenic substrates: 50 U of caspase-1 and 10 μM N-acetyl-Tyr-Val-Ala-Asp-7-amido-4-methylcoumarin.
as §3

SMILES: C[C@H](NC(=O)C(=O)Nc1ccccc1C(C)(C)C)C(=O)N[C@@H](CC(=O)O)C(=O)COc1c(F)c(F)cc(F)c1F [IDN6556]
- % protection against staurosporine-induced cell death [1]: 73%
- Vd ([2]; 1 mg/kg IV): 11.8 L/kg
- clearance ([2]; 1 mg/kg IV): 150 mL/min/kg
- k el ([2]; 1 mg/kg IV, 5 mg/kg PO): 0.000194 s⁻¹
- half-life ([2]; 1 mg/kg IV, 5 mg/kg PO, read-out: Beta t1/2 (converted)): 54 min
- AUC(0-inf) ([2]; 1 mg/kg IV, read-out: AUC (0-inf) iv): 111 ng·h/mL
- Cmax ([2]; 5 mg/kg PO): 113 ng/mL
- Tmax ([2]; 5 mg/kg PO): 30 min
- bioavailability ([2]; 5 mg/kg PO vs 1 mg/kg IV, read-out: F (oral bioavailability)): 17.9%
- AUC(0-inf) ([2]; 5 mg/kg PO, read-out: AUC (0-inf) po): 99.1 ng·h/mL
- solubility at 16 h [3]: 145 µM (≈ 82.6 µg/mL)
- IC50 (caspase-3): 35 nM
- % stable at 60 min MLM (Microsomal stability): 61%
- inhibition at 10 µM (Thrombin): 7%
- inhibition at 10 µM (Cathepsin-B): 0%
- inhibition at 10 µM (caspase-1): 59%

Source: article PMC3519673, “Discovery of indole tetrafluorophenoxymethylketone-based potent novel small molecule inhibitors of caspase-3” (Organic and Medicinal Chemistry Letters, 2012)
